Values quoted from earlier work, collected in US20260216081A1, “METFORMIN HYDROCHLORIDE ENTERIC-COATED PREPARATION” (YAYAN (TIANJIN) BIOMEDICAL TECHNOLOGY CENTER (LIMITED …, priority 2023, published 2026).

Details: background statement

In the case of `CN(C)C(=N)N=C(N)N` [metformin], the “Incidence of gastrointestinal adverse reactions” value is listed as 20-30%.
